Results: paper PMC7876048, “Mutant-selective degradation by BRAF-targeting PROTACs” (Nature Communications, 2021)
“Also recorded” adds a separate entry of the source.

Key:
[1] = system: SK-MEL-246 cells (Class 2, BRAF^G469A); experiment: Cell proliferation (MTS) assay; format: cell-based; conditions: 120 h, 5-day treatment, read-out: EC50, cell growth
[2] = molecular target: T1, BRAF^G466V (CAL-12-T cells, homozygous, Class 3) (Homo sapiens, UniProt P15056, G466V); experiment: BRAF degradation by immunoblot in CAL-12-T cells; format: cell-based
T1 construct: endogenous in cells; host or cells: CAL-12-T
T1 sequence (P15056 whole entry G466V): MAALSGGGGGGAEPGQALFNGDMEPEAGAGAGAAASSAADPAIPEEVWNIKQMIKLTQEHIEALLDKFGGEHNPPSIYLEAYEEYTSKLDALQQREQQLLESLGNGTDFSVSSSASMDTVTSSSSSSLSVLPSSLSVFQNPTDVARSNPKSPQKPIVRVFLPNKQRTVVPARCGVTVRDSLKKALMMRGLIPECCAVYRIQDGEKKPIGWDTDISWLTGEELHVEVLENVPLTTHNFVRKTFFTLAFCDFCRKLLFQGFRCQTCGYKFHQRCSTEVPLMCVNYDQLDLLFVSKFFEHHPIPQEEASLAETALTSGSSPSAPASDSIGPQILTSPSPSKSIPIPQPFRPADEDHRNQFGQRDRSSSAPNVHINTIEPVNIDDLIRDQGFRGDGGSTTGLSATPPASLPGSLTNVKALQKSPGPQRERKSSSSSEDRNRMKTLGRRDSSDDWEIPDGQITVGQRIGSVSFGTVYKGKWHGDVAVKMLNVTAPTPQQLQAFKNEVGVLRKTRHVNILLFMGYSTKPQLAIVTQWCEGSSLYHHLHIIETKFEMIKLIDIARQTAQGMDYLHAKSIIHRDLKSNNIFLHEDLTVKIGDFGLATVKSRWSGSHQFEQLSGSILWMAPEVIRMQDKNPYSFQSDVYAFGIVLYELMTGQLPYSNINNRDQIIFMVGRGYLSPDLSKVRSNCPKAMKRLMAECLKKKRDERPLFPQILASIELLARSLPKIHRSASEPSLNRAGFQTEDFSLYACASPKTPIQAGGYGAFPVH
Protocol: (§1) Cells were plated in 6 well dishes (5 × 10^5–8 × 10^5 cells) and allowed to attach overnight. […] The plates were then placed on ice and washed 1x with chilled PBS and lysed in buffer containing 25 mM Tris-HCl [pH 7.4], 0.25% sodium deoxycholate, 150 mM NaCl, 1% Triton X-100, supplemented with protease inhibitors (1x Roche protease inhibitor cocktail) and phosphatase inhibitors (10 mM NaF, 1 mM Na3OV4, and 20 mM β-glycerophosphate). Lysates were then cleared at 21,000 g for 10 min at 4 °C. Protein concentrations of the supernatants were then quantified using a Pierce BCA Protein Assay. 12–40 µg of protein were separated using a gradient (4–20%) Criterion TGX precast gel and transferred unto a nitrocellulose membrane. The membranes were then blocked in 5% non-fat milk in TBST (Tris-buffered Saline with Tween 20) for 1 h before probing with the indicated primary antibody overnight. Membranes were imaged using Bio-Rad Image Lab software using ECL prime detection reagent (GE Healthcare, RPN2232 or ThermoScientific, 34095).
(§2) Western blot data was quantified by using the band feature in Image Lab, and values were averaged and analyzed in GraphPad Prism. DC50 and DMAX values were fitted using a three parameter [inhibitor] versus response and reported directly from the Prism output. Mean ± SD and unpaired t-tests were performed in GraphPad Prism.

[3] = system: SK-MEL-28 cells (Class 1, BRAF^V600E); experiment: Cell proliferation (MTS) assay; format: cell-based
[4] = system: SK-MEL-239 C4 cells (BRAF^WT/BRAF-p61^V600E); experiment: Cell proliferation (MTS) assay; format: cell-based; conditions: 5 days
[5] = molecular target: T2, NanoLuc-BRAF^WT : HaloTag-VHL (HEK293T cells) (Homo sapiens, UniProt P15056); experiment: NanoBRET ternary complex assay; format: cell-based; conditions: cells expressing BRAF^WT, concentrations as high as 10 μM, 3 h
T2 construct: Full-length BRAF (WT and V600E) was cloned into the pNLF1-C [CMV/Hygro] vector; host or cells: HEK 293 T, transient co-transfection
Protocol: (§3) Full-length BRAF (WT and V600E) was cloned into the pNLF1-C [CMV/Hygro] vector. HEK 293 T cells were seeded into 6 well dishes (~75% confluent) and co-transfected with HaloTag-VHL (Promega; N273A) and C-terminal nanoLUC-tagged BRAF. Transfection was performed using a ratio of 1:2 DNA to Lipofectamine 2000. After 24 h, 1 × 10^4 cells were seeded into white 96 well plates (Costar Cat# 3610) in Opti-MEM™ I Reduced Serum Medium supplemented with 4% FBS and […] HaloTag NanoBRET 618 ligand or DMSO. The next day, the cells were pre-treated with 2 μM MG-132 for 1 h then treated with indicated amount of drug for 3 h. 6X NanoBRET Nano-Glo Substrate in Opti-MEM was then added to each well and the plate was read using a Perkin Elmer Envision. Dual filtered luminescence was measured with a 430 nm (donor, […]) and a 615 nm filter (acceptor, […]). Background corrected (cells without HaloTag 618 ligand) nanoBRET ratios were calculated to determine intracellular ternary complex formation.

[6] = molecular target: T3, NanoLuc-BRAF^V600E : HaloTag-VHL (HEK293T cells) (Homo sapiens, UniProt P15056+P40337, V600E); experiment: NanoBRET ternary complex assay; format: cell-based; conditions: cells expressing BRAF^V600E, 3 h
T3 construct: Full-length BRAF (WT and V600E) was cloned into the pNLF1-C [CMV/Hygro] vector; host or cells: HEK 293 T, transient co-transfection
T3 sequence (P15056 whole entry V600E): as the sequence (P15056 whole entry G466V) above, with V466G, V600E counted along it
T3 sequence (P40337 whole entry): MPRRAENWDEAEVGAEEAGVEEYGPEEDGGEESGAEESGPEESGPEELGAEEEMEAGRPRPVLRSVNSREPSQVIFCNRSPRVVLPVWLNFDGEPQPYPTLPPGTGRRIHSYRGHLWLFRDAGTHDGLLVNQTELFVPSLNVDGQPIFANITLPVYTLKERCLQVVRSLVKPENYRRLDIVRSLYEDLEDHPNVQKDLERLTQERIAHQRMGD
T3 sequence (Q15369 whole entry partner): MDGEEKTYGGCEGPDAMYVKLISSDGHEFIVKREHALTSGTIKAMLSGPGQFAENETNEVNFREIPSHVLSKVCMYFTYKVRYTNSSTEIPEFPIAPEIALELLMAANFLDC
T3 sequence (Q15370 whole entry partner): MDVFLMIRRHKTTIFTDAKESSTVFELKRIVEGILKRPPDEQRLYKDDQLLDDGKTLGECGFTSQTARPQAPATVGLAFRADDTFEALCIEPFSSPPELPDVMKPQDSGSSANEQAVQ
Protocol: as §3

[7] = system: H1666 cells (Class 3, BRAF^G466V); experiment: Cell proliferation (MTS) assay; format: cell-based; conditions: 5 days
[8] = system: SK-MEL-246 melanoma xenograft (Class 2, BRAF^G469A); experiment: SK-MEL-246 xenograft efficacy study; format: in vivo, mice
Protocol: 10 million SK-MEL-246 cells were subcutaneously implanted in female nu/nu mice. The tumor volumes and mice weights were measured twice a week after the implantation. […] All studies were performed in compliance with institutional guidelines under an Institutional Animal Care and Use Committee (IACUC) approved protocol. Investigators were not blinded when assessing the outcome of the in vivo experiments.

BRAF^WT (OVCAR-8 cells) = molecular target: T4, BRAF^WT (OVCAR-8 cells) (Homo sapiens, UniProt P15056); experiment: BRAF^WT degradation by immunoblot in OVCAR-8 cells; format: cell-based
T4 construct: endogenous in cells; host or cells: OVCAR-8
T4 sequence (P15056 whole entry): as the sequence (P15056 whole entry G466V) above, with V466G counted along it
Protocol: as §1, §2

[9] = molecular target: T5, BRAF^G466V (H1666 cells, heterozygous, Class 3) (Homo sapiens, UniProt P15056, G466V); experiment: BRAF degradation by immunoblot in H1666 cells; format: cell-based
T5 construct: endogenous in cells; host or cells: H1666
T5 sequence (P15056 2-766 G466V): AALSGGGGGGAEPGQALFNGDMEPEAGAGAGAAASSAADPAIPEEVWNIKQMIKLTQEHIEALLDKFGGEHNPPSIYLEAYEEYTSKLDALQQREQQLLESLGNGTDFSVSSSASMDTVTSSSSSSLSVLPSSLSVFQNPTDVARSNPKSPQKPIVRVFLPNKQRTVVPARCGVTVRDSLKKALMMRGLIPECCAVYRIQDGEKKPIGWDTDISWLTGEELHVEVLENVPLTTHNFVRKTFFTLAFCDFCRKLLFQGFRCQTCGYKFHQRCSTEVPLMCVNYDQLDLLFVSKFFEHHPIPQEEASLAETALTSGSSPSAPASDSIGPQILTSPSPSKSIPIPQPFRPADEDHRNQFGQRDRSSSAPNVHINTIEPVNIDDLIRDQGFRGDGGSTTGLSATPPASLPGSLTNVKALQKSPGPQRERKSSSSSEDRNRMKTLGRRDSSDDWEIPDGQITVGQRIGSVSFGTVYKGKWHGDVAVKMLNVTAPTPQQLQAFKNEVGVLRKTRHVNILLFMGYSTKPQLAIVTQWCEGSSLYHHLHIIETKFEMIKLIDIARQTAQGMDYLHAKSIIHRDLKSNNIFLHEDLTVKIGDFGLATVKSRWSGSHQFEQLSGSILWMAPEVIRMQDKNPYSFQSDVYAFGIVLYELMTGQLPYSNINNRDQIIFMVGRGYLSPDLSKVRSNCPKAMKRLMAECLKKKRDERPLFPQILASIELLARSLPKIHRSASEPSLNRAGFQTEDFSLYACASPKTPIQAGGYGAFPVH
Protocol: as §1, §2

CCCS(=O)(=O)Nc1ccc(F)c(C(=O)c2c[nH]c3ncc(-c4ccc(N5CCN(CC(=O)NC(C(=O)N6CC(O)CC6C(=O)NCc6ccc(-c7scnc7C)cc6)C(C)(C)C)CC5)cc4)cc23)c1F (stereo not drawn) [SJF-0628]
EC50 [1]: 45 ± 1.11 nM | DC50 [2]: 23 nM | Dmax [2]: > 90% | EC50 ([3]; Homo sapiens, 72 h, 3 days, read-out: EC50, cell growth): 37 ± 1.2 nM | increase in potency of SJF-0628 (cell growth) ([3]; vs vemurafenib and SJF-0661): 6 fold | EC50 ([4]; 120 h, read-out: EC50, cell growth): 218 nM | decrease in cell growth [4]: ~ 80% | BRET signal [5]: no observed increase | BRET signal [6]: an increase in BRET signal | cell growth inhibition [7]: 65% | effect on tumor growth ([8]; once daily 100 mg/kg i.p.): minor response | effect on tumor growth ([8]; twice daily 50 mg/kg i.p., within 10 days, 50 mg/kg): tumor regression; also recorded: tumor shrinkage beyond the initial tumor size | BRAF^WT degradation (BRAF^WT (OVCAR-8 cells)): minor BRAF^WT degradation | DC50 [9]: 29 nM | Dmax ([9]; NCI-H1666): > 80%
